Consider 21 molecules from patent US20100286145A1, “ISOPHTHALAMIDE DERIVATIVES INHIBITING BETA-SECRETASE ACTIVITY” (CoMentis, Inc., priority 2007, published 2010).

Assay [1] deals with memapsin 2 (Homo sapiens, UniProt P56817). Kind of assay: Inhibition of memapsin 2 beta-secretase activity (fluorogenic substrate FS-2). It is filed as biochemical. The following applies: memapsin 2, pH 4, 37° C., 20 minutes pre-incubation; read-out: M2Ki. Put shortly:
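Memapsin 2 pre-incubated 20 min with compound at pH 4, 37° C, then FS-2 substrate (MCA-SEVNLDAEFK-DNP, APP Swedish cleavage site) added. Rate of fluorescence increase compared with uninhibited controls, fitted to a tight-binding inhibition model.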

In assay [2] the test system is Aβ production in Chinese hamster ovary cells that over-express human APP695 with the London and Swedish mutations. Kind of assay: Cellular Aβ IC50 determination (Aβ40 sandwich ELISA). The assay is classed as cell-based. To be noted: Cricetulus griseus. In outline:
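CHO cells overexpressing human APP695 with London and Swedish mutations, seeded at 10% confluency, treated with compounds up to about 4 μM final (0.4% DMSO). Secreted Aβ40 measured by sandwich ELISA relative to control and fitted to a 4-parameter IC50 model.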
A general note: ELISA stands for enzyme-linked immunosorbent assay.

[3] abbreviates: cellular Aβ production, read-out: IC50.

The structures appear in SMILES notation. Read-outs that look alike come from different tables or passages of the source.

What is called IC50 is the concentration that inhibits the measured activity by half.

Sequence of memapsin 2 (P56817 46-501): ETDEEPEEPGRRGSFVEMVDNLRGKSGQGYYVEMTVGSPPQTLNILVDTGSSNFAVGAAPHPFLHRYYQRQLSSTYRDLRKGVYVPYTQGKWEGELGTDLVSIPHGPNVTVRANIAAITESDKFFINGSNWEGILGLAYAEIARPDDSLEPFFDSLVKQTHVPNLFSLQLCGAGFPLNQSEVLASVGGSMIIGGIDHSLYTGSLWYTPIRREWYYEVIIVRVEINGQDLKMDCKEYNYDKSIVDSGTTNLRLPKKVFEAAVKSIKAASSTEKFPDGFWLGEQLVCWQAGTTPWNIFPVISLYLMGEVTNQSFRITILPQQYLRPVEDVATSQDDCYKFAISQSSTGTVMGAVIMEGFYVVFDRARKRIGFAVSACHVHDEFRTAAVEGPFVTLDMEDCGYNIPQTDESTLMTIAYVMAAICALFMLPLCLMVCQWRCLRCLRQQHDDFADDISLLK

Regarding `Cc1csc(CN(C)C(=O)c2cc(C(=O)N[C@@H](Cc3ccccc3)[C@H](O)CNCc3cncc(C(C)C)c3)cc(-c3ccccn3)c2)n1` [Compound 181, N1-((2S,3R)-3-hydroxy-4-((5-isopropylpyridin-3-yl)methylamino)-1-phenylbutan-2-yl)-N3-methyl-N3-((4-methylthiazol-2-yl)methyl)-5-(pyridin-2-yl)isophthalamide], the Ki in assay [1] is less than 0.3 µM. For the same molecule, in assay [2] (setting [3]), the IC50 is less than 1 µM.

For `Cc1csc(CN(C)C(=O)c2cccc(C(=O)N[C@@H](Cc3ccccc3)[C@H](O)CN[C@@H](C)c3cncc(C(C)C)c3)c2)n1` [Compound 182, N1-((2S,3R)-3-hydroxy-4-((S)-1-(5-isopropylpyridin-3-yl)ethylamino)-1-phenylbutan-2-yl)-N3-methyl-N3-((4-methylthiazol-2-yl)methyl)isophthalamide], the Ki in assay [1] is less than 0.3 µM. In addition, the IC50 in assay [2] (setting [3]) was less than 1 µM.

As to `Cc1csc(CN(C)C(=O)c2cccc(C(=O)N[C@@H](Cc3cscn3)[C@H](O)CNCc3cncc(C(C)C)c3)c2)n1` [Compound 183, N1-((2S,3R)-3-hydroxy-4-((5-isopropylpyridin-3-yl)methylamino)-1-(thiazol-4-yl)butan-2-yl)-N3-methyl-N3-((4-methylthiazol-2-yl)methyl)isophthalamide], the Ki in assay [1] fell in the range of 0.301 to 0.5 µM. Besides, the IC50 in assay [2] (setting [3]) lay in the range of 1 to 5 µM.

Regarding `Cc1csc(CN(C)C(=O)c2cccc(C(=O)N[C@@H](Cc3ccccc3)[C@H](O)CNCc3cccc(C(C)(C)O)c3)c2)n1` [Compound 184, N1-((2S,3R)-3-hydroxy-4-(3-(2-hydroxypropan-2-yl)benzylamino)-1-phenylbutan-2-yl)-N3-methyl-N3-((4-methylthiazol-2-yl)methyl)isophthalamide], the Ki in assay [1] was less than 0.3 µM. Moreover, in assay [2] (setting [3]), the IC50 is less than 1 µM.

Take `Cc1csc(CN(C)C(=O)c2cccc(C(=O)N[C@@H](Cc3ccccc3)[C@H](O)CNCc3cc(N(C)C)cc(N(C)C)c3)c2)n1` [Compound 185, N1-((2S,3R)-4-(3,5-bis(dimethylamino)benzylamino)-3-hydroxy-1-phenylbutan-2-yl)-N3-methyl-N3-((4-methylthiazol-2-yl)methyl)isophthalamide]: in assay [1], the Ki is less than 0.3 µM. For the same molecule, the IC50 in assay [2] (setting [3]) was less than 1 µM.

For `Cc1csc(CN(C(=O)c2cc(C(=O)N[C@@H](Cc3ccccc3)[C@H](O)CNCc3cncc(C(C)C)c3)cc(-c3ncco3)c2)C2CC2)n1` [Compound 186, N1-cyclopropyl-N3-((2S,3R)-3-hydroxy-4-((5-isopropylpyridin-3-yl)methylamino)-1-phenylbutan-2-yl)-N1-((4-methylthiazol-2-yl)methyl)-5-(oxazol-2-yl)isophthalamide], the Ki in assay [1] is less than 0.3 µM. Besides, the IC50 in assay [2] (setting [3]) is less than 1 µM.

`COc1cccc(CNC[C@@H](O)[C@H](Cc2ccccc2)NC(=O)c2cc(C(=O)NCc3nc(C)cs3)cc(N3CCCC3)c2)c1` [Compound 187, N1-((2S,3R)-3-hydroxy-4-(3-methoxybenzylamino)-1-phenylbutan-2-yl)-N3-((4-methylthiazol-2-yl)methyl)-5-(pyrrolidin-1-yl)isophthalamide]: the Ki in assay [1] was less than 0.3 µM. The IC50 in assay [2] (setting [3]) is greater than 5 µM.

On to `CCS(=O)(=O)c1cc(CNC[C@@H](O)[C@H](Cc2ccccc2)NC(=O)c2cccc(C(=O)N(C)Cc3nc(C)cs3)c2)cc(C(C)C)c1` [Compound 188, N1-((2S,3R)-4-(3-(ethylsulfonyl)-5-isopropylbenzylamino)-3-hydroxy-1-phenylbutan-2-yl)-N3-methyl-N3-((4-methylthiazol-2-yl)methyl)isophthalamide], for which the Ki in assay [1] was less than 0.3 µM. Besides, the IC50 in assay [2] (setting [3]) was less than 1 µM.

Regarding `COc1cccc(CNC[C@@H](O)[C@H](Cc2ccccc2)NC(=O)c2cc(C(=O)N(C)Cc3nc(C)cs3)cc(-c3cccnc3)c2)c1` [Compound 189, N1-((2S,3R)-3-hydroxy-4-(3-methoxybenzylamino)-1-phenylbutan-2-yl)-N3-methyl-N3-((4-methylthiazol-2-yl)methyl)-5-(pyridin-3-yl)isophthalamide], the Ki in assay [1] is less than 0.3 µM. In assay [2] (setting [3]), the IC50 was less than 1 µM.

As for `Cc1csc(CN(C)C(=O)c2cccc(C(=O)N[C@@H](Cc3ccccc3)[C@H](O)CNCc3cncc(C(C)(C)C)c3)c2)n1` [Compound 190, N1-((2S,3R)-4-((5-tert-butylpyridin-3-yl)methylamino)-3-hydroxy-1-phenylbutan-2-yl)-N3-methyl-N3-((4-methylthiazol-2-yl)methyl)isophthalamide], the Ki in assay [1] was less than 0.3 µM. Also, the IC50 in assay [2] (setting [3]) is less than 1 µM.

Regarding `Cc1csc(CN(C)C(=O)c2cccc(C(=O)N[C@@H](Cc3ccccc3)[C@H](O)CNCc3cccc(N)c3)c2)n1` [Compound 191, N1-((2S,3R)-4-(3-aminobenzylamino)-3-hydroxy-1-phenylbutan-2-yl)-N3-methyl-N3-((4-methylthiazol-2-yl)methyl)isophthalamide], the Ki in assay [1] is greater than 0.501 µM. The IC50 in assay [2] (setting [3]) was greater than 5 µM.

For the molecule `Cc1csc(CN(C)C(=O)c2cc(CO)cc(C(=O)N[C@@H](Cc3ccccc3)[C@H](O)CNCc3cncc(C(C)C)c3)c2)n1` [Compound 192, N1-((2S,3R)-3-hydroxy-4-((5-isopropylpyridin-3-yl)methylamino)-1-phenylbutan-2-yl)-5-(hydroxymethyl)-N3-methyl-N3-((4-methylthiazol-2-yl)methyl)isophthalamide], the Ki in assay [1] was less than 0.3 µM. Further, the concentration for half-maximal inhibition (IC50) in assay [2] (setting [3]) is less than 1 µM.

Turning to `CC(=O)Nc1cc(CNC[C@@H](O)[C@H](Cc2ccccc2)NC(=O)c2cccc(C(=O)N(C)Cc3nc(C)cs3)c2)cc(C(C)C)c1` [Compound 193, N1-((2S,3R)-4-(3-acetamido-5-isopropylbenzylamino)-3-hydroxy-1-phenylbutan-2-yl)-N3-methyl-N3-((4-methylthiazol-2-yl)methyl)isophthalamide], the Ki in assay [1] is less than 0.3 µM. For the same molecule, the IC50 in assay [2] (setting [3]) was less than 1 µM.

As for `COc1cccc(CNC[C@@H](O)[C@H](Cc2ccccc2)NC(=O)c2cc(C(=O)N(C)Cc3nc(C)cs3)cc(N3CCCC3=O)c2)c1` [Compound 194, N1-((2S,3R)-3-hydroxy-4-(3-methoxybenzylamino)-1-phenylbutan-2-yl)-N3-methyl-N3-((4-methylthiazol-2-yl)methyl)-5-(2-oxopyrrolidin-1-yl)isophthalamide], in assay [1], the Ki was less than 0.3 µM. In assay [2] (setting [3]), the IC50 was less than 1 µM.

Turning to `Cc1csc(CN(C)C(=O)c2cc(C(=O)N[C@@H](Cc3ccccc3)[C@H](O)CNCc3cncc(C(C)C)c3)cc(N3CCCC3=O)c2)n1` [Compound 195, N1-((2S,3R)-3-hydroxy-4-((5-isopropylpyridin-3-yl)methylamino)-1-phenylbutan-2-yl)-N3-methyl-N3-((4-methylthiazol-2-yl)methyl)-5-(2-oxopyrrolidin-1-yl)isophthalamide], the Ki in assay [1] is less than 0.3 µM. The IC50 in assay [2] (setting [3]) is less than 1 µM.

Take `Cc1csc(CN(C)C(=O)c2cccc(C(=O)N[C@@H](Cc3ccccc3)[C@H](O)CNCc3cc(-c4ccccc4)on3)c2)n1` [Compound 196, N1-((2S,3R)-3-hydroxy-1-phenyl-4-((5-phenylisoxazol-3-yl)methylamino)butan-2-yl)-N3-methyl-N3-((4-methylthiazol-2-yl)methyl)isophthalamide]: the Ki in assay [1] was less than 0.3 µM. Besides, the IC50 in assay [2] (setting [3]) is less than 1 µM.

As to `Cc1csc(CNC(=O)c2cc(C(=O)N[C@@H](Cc3ccccc3)[C@H](O)CNCc3cncc(C(C)C)c3)cc(-c3ncco3)c2)n1` [Compound 197, N1-((2S,3R)-3-hydroxy-4-((5-isopropylpyridin-3-yl)methylamino)-1-phenylbutan-2-yl)-N3-((4-methylthiazol-2-yl)methyl)-5-(oxazol-2-yl)isophthalamide], the Ki in assay [1] is less than 0.3 µM. Also, in assay [2] (setting [3]), the IC50 was less than 1 µM.

For `Cc1csc(CN(C)C(=O)c2cccc(C(=O)N[C@@H](Cc3ccccc3)[C@H](O)CNCc3cc(OC(=O)N(C)C)cc(C(C)C)c3)c2)n1` [Compound 198, 3-(((2R,3S)-2-hydroxy-3-(3-(methyl((4-methylthiazol-2-yl)methyl)carbamoyl)benzamido)-4-phenylbutylamino)methyl)-5-isopropylphenyl dimethylcarbamate], the Ki in assay [1] was less than 0.3 µM. This molecule yielded an IC50 in assay [2] of less than 1 µM.

Consider `COc1cccc(CNC[C@@H](O)[C@H](Cc2ccccc2)NC(=O)c2cc(C(=O)NCc3nc(C)cs3)cc(N3CCCC3=O)c2)c1` [Compound 199, N1-((2S,3R)-3-hydroxy-4-(3-methoxybenzylamino)-1-phenylbutan-2-yl)-N3-((4-methylthiazol-2-yl)methyl)-5-(2-oxopyrrolidin-1-yl)isophthalamide], for which, in assay [1], the Ki is greater than 0.501 µM. Besides, the IC50 in assay [2] (setting [3]) was greater than 5 µM.

For the molecule `Cc1csc(CN(C)C(=O)c2cc(C(=O)N[C@@H](Cc3ccccc3)[C@H](O)CNCc3cncc(C(C)C)c3)cc(-c3cccnc3)c2)n1` [Compound 200, N1-((2S,3R)-3-hydroxy-4-((5-isopropylpyridin-3-yl)methylamino)-1-phenylbutan-2-yl)-N3-methyl-N3-((4-methylthiazol-2-yl)methyl)-5-(pyridin-3-yl)isophthalamide], in assay [1], the Ki was less than 0.3 µM. In assay [2] (setting [3]), the IC50 is less than 1 µM.

For the molecule `COc1cccc([C@@H](C)NC[C@@H](O)[C@H](Cc2ccccc2)NC(=O)c2cc(C(=O)N[C@H](C)c3ccccc3)cc(N(C)S(C)(=O)=O)c2)c1` [Compound 201, N1-((2S,3R)-3-hydroxy-4-((R)-1-(3-methoxyphenyl)ethylamino)-1-phenylbutan-2-yl)-5-(N-methylmethylsulfonamido)-N3-((R)-1-phenylethyl)isophthalamide], the Ki in assay [1] is less than 0.3 µM. Besides, in assay [2] (setting [3]), the half-inhibitory concentration (IC50) is less than 1 µM.
